Results as given in paper PMC11532403 (Signal Transduction and Targeted Therapy, 2024).
Where two headings read alike, the source gives them in different places.

Tests used:
[1] = Phase 1 trial: plasma pharmacokinetics; format: in vivo; settings: human, oral; for MRT inf: read-out: MRTINF_obs mean; for AUC(0-t): read-out: AUC0–12 h mean
Excerpt: Serial plasma samples were also collected in each patient after the first dose and during multiple-dose administration on Cycle 1 Day 28.

[2] = test system: central nervous system (CNS) metastases; experiment: Phase 1 trial: intracranial efficacy (RANO-BM); format: in vivo, human; settings: for Intracranial lesion reduction: case, KIF5B-RET NSCLC, 160 mg BID
Excerpt: Ongoing assessments are underway to gain a more comprehensive understanding of its intracranial efficacy.

[3] = test system: RET-driven xenografts; experiment: RET-driven xenograft models, overall; format: in vivo, mice; settings: for Effective tumor suppressant dose (mg/kg): tumor-bearing mice
Method: All procedures relating to animal handling, care, and treatment were performed according to the Beijing Laboratory Animal Management Regulations. 6-week-old male BALB/c nude mice were inoculated subcutaneously into the flank with Baf3-CCDC6-RET^WT (5*10^6 cells/ 0.1 mL/ each), Baf3-CCDC6-RET^M918T (5*10^6 cells/0.1 mL/each), Baf3-CCDC6-RET^V804M (5*10^6 cells/ 0.1 mL/ each), or HEK293T-KIF5B-RET^V804M (5*10^6 cells/ 0.1 mL/ each). Mice were randomized by tumor size into groups of 10 to 12 when tumor volume reached approximately 100-150 mm^3. […] Tumor size and body weight were measured two times each week, and tumor volume was calculated with the following formula: [length × (width)^2]/ 2. Statistical significance was calculated by using two-way ANOVA test to assess the difference in tumor volumes between the control (vehicle-treated) and treatment groups.
Supplementary Figure S1. […] Mice bearing Baf3-CCDC6-RET^WT (a), Baf3-CCDC6-RET^M918T (b) and Baf3-CCDC6-RET^V804M (c) xenograft and time course of treatment. Data represent mean ± standard error of the mean (SEM). There were 12 mice in each group in both models. d, Mice bearing HEK293T-KIF5B-RET^V804M xenograft and time course of treatment. Data represent mean ± SEM. There were 10 mice in each group in this model. […] Statistical analysis was performed using a two-way ANOVA test. *, […]; **, p < 0.01; ***, p < 0.001; ****, p < 0.0001. Abbreviations: bid, bis in die; mc, methyl cellulose; mpk, mg/Kg.

[4] = Plasma protein binding, rapid equilibrium dialysis; format: in vitro ADME; settings: mouse, read-out: Plasma protein binding rate
[5] = Plasma protein binding, rapid equilibrium dialysis; format: in vitro ADME; settings: rat, read-out: Plasma protein binding rate (converted)
[6] = target: T1, CYP3A4 (Homo sapiens, UniProt P08684); experiment: CYP inhibition in human liver microsomes; format: in vitro ADME; settings: mixed human liver microsomes, 0.5-25 μM
T1 construct: substrates of different CYP450 enzymes in mixed human liver microsomes; from tissue; host or cells: mixed human liver microsomes
T1 sequence (P08684 whole entry): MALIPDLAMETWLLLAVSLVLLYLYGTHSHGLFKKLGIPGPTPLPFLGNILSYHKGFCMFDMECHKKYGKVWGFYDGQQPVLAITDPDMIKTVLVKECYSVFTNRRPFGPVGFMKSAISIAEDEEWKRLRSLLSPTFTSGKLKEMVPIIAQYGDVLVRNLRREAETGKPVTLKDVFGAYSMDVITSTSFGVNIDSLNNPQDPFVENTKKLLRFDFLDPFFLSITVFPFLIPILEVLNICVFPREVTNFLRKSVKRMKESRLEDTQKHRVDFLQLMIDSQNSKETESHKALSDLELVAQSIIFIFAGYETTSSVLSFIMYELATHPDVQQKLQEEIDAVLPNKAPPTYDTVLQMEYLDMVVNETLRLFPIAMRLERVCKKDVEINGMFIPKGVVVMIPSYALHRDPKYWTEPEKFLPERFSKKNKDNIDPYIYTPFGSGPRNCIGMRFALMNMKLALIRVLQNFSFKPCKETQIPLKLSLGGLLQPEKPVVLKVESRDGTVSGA

[7] = 20 mg, Cycle 1 Day 28, 20 mg QD (n = 1)
[8] = 40 mg, Cycle 1 Day 28, 40 mg BID (n = 3)
[9] = 80 mg, Cycle 1 Day 28, 80 mg BID (n = 3)
[10] = 120 mg, Cycle 1 Day 28, 120 mg BID (n = 3)
[11] = 200 mg, Cycle 1 Day 1, 200 mg BID (n = 9)

In the case of COc1ccc(CN2C3CC2CN(c2ccc(-c4cc(N5CC(C)(O)C5)cn5ncc(C#N)c45)cn2)C3)cn1 [SY-5007, 6-(3-hydroxy-3-methylazetidin-1-yl)-4-(6-(6-((6-methoxypyridin-3-yl)methyl)-3,6-diazabicyclo[3.1.1]heptan-3-yl)pyridin-3-yl)pyrazolo[1,5-a]pyridine-3-carbonitrile], the AUC(0-inf) ([1]; 20 mg, Cycle 1 Day 28, 20 mg BID (n = 1), read-out: AUCINF_obs mean) is reported as 4020 ng·h/mL, the Cmax ([1]; 20 mg, Cycle 1 Day 28, 20 mg BID (n = 1), read-out: Cmax mean) is reported as 640 ng/mL and the MRT inf ([1]; 20 mg, Cycle 1 Day 28, 20 mg BID (n = 1)) is reported as 9 h. For the same molecule, the half-life ([1]; 20 mg, Cycle 1 Day 28, 20 mg BID (n = 1), read-out: T1/2 mean (converted)) was 7.3 h, the Tmax ([1]; 20 mg, Cycle 1 Day 28, 20 mg BID (n = 1), read-out: Tmax mean) was 0.5 h and the AUC(0-t) [1, 7] was 2200 ng·h/mL. The AUC(0-inf) ([1]; 20 mg, Cycle 1 Day 28, 20 mg QD (n = 1), read-out: AUCINF_obs mean) was 2340 ng·h/mL, the Cmax ([1]; 20 mg, Cycle 1 Day 28, 20 mg QD (n = 1), read-out: Cmax mean) was 388 ng/mL and the MRT inf [1, 7] was 7.7 h. It also gave a half-life ([1]; 20 mg, Cycle 1 Day 28, 20 mg QD (n = 1), read-out: T1/2 mean (converted)) of 6 h, a Tmax ([1]; 20 mg, Cycle 1 Day 28, 20 mg QD (n = 1), read-out: Tmax mean) of 1 h and an AUC(0-t) [1, 8] of 5810 ng·h/mL. The AUC(0-inf) ([1]; 40 mg, Cycle 1 Day 28, 40 mg BID (n = 3), read-out: AUCINF_obs mean) was 7100 ng·h/mL, the Cmax ([1]; 40 mg, Cycle 1 Day 28, 40 mg BID (n = 3), read-out: Cmax mean) was 1280 ng/mL and the MRT inf [1, 8] was 6.8 h. For the same molecule, the half-life ([1]; 40 mg, Cycle 1 Day 28, 40 mg BID (n = 3), read-out: T1/2 mean (converted)) was 5 h, the Tmax ([1]; 40 mg, Cycle 1 Day 28, 40 mg BID (n = 3), read-out: Tmax mean) was 0.5 h and the AUC(0-t) [1, 9] was 12600 ng·h/mL. The AUC(0-inf) ([1]; 80 mg, Cycle 1 Day 28, 80 mg BID (n = 3), read-out: AUCINF_obs mean) was 18800 ng·h/mL, the Cmax ([1]; 80 mg, Cycle 1 Day 28, 80 mg BID (n = 3), read-out: Cmax mean) was 1960 ng/mL and the MRT inf [1, 9] was 8.2 h. For the same molecule, the half-life ([1]; 80 mg, Cycle 1 Day 28, 80 mg BID (n = 3), read-out: T1/2 mean (converted)) was 5.5 h, the Tmax ([1]; 80 mg, Cycle 1 Day 28, 80 mg BID (n = 3), read-out: Tmax mean) was 1 h and the AUC(0-t) [1, 10] was 21500 ng·h/mL. The AUC(0-inf) ([1]; 120 mg, Cycle 1 Day 28, 120 mg BID (n = 3), read-out: AUCINF_obs mean) was 34000 ng·h/mL, the Cmax ([1]; 120 mg, Cycle 1 Day 28, 120 mg BID (n = 3), read-out: Cmax mean) was 2870 ng/mL and the MRT inf [1, 10] was 10.5 h. It also gave a half-life ([1]; 120 mg, Cycle 1 Day 28, 120 mg BID (n = 3), read-out: T1/2 mean (converted)) of 7 h, a Tmax ([1]; 120 mg, Cycle 1 Day 28, 120 mg BID (n = 3), read-out: Tmax mean) of 1 h and an AUC(0-t) [1, 11] of 14900 ng·h/mL. The AUC(0-inf) ([1]; 200 mg, Cycle 1 Day 1, 200 mg BID (n = 9), read-out: AUCINF_obs mean) was 21600 ng·h/mL, the Cmax ([1]; 200 mg, Cycle 1 Day 1, 200 mg BID (n = 9), read-out: Cmax mean) was 3180 ng/mL and the MRT inf [1, 11] was 15 h. It also gave a half-life ([1]; 200 mg, Cycle 1 Day 1, 200 mg BID (n = 9), read-out: T1/2 mean (converted)) of 23.9 h, a Tmax ([1]; 200 mg, Cycle 1 Day 1, 200 mg BID (n = 9), read-out: Tmax mean) of 1 h and an AUC(0-inf) ([1]; single dose, 20 mg to 160 mg, read-out: AUCINF_obs range) of 2410 to 21300 ng·h/mL. The Cmax ([1]; single dose, 20 mg to 160 mg, read-out: Cmax range) was 214 to 3470 ng/mL, the half-life ([1]; single dose, read-out: Mean T1/2 across dose cohorts) was 6.8 to 44.4 h and the Tmax ([1]; single dose, read-out: Mean Tmax across dose cohorts) was 0.5 to 4 h. The “Intracranial ORR” value ([2]; 2/3 patients with measurable CNS metastases) was 66.7%, the “Intracranial DCR” value ([2]; 3/3 patients) was 100.0% and the Intracranial lesion reduction ([2]; after 4 weeks) was 40.7%. The Intracranial lesion reduction ([2]; after 12 weeks) was 56.5%, the “Minimal effective dose (significant tumor growth inhibition in most models)” value ([3]; mouse, in vivo) was 10 mg/kg BID and the “Effective tumor suppressant dose (mg/kg)” value ([3]; daily dose of 3 mg/kg BID) was 6(3 mg/kg BID). The “Effective tumor suppressant dose (mg/kg)” value ([3]; daily dose of 6 mg/kg BID) was 12(6 mg/kg BID), the fraction unbound [4] was 0.01 and the fraction unbound [5] was 0.034. For the same molecule, the IC50 [6] was 18 µM.
